Experimental data taken from ChEMBL document CHEMBL1201862, “PubChem BioAssay data set” (2004).
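Exposure lasted 48 hours, with cells grown in 96-well plates and compounds tested at five concentrations. The concentration for 50% growth inhibition is given as GI50.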 Activity calls are given as the source filed them. Cut-off read from the data, not from the text of the source: active = GI50 up to about 1.1 µM and inactive = higher.

Key:
Assay in all cases: inhibition of tumour cell growth, NCI panel, 48 h
A498 = test system: A498
A549 = test system: A549
BT-549 = test system: BT-549
COLO 205 = test system: COLO 205
Hs-578T = test system: Hs-578T
KM12 = test system: KM12
MDA-N = test system: MDA-N
Malme-3M = test system: Malme-3M
NCI-H226 = test system: NCI-H226
NCI-H23 = test system: NCI-H23
NCI-H460 = test system: NCI-H460
NCI-H522 = test system: NCI-H522
NCI/ADR-RES = test system: NCI/ADR-RES
OVCAR-4 = test system: OVCAR-4
OVCAR-5 = test system: OVCAR-5
SF-295 = test system: SF-295
SF-539 = test system: SF-539
SR = test system: SR
T47D = test system: T47D
UACC-257 = test system: UACC-257

SMILES | GI50 (A498) | GI50 (A549) | GI50 (BT-549) | GI50 (COLO 205) | GI50 (Hs-578T) | GI50 (KM12) | GI50 (MDA-N) | GI50 (Malme-3M) | GI50 (NCI-H226) | GI50 (NCI-H23) | GI50 (NCI-H460) | GI50 (NCI-H522) | GI50 (NCI/ADR-RES) | GI50 (OVCAR-4) | GI50 (OVCAR-5) | GI50 (SF-295) | GI50 (SF-539) | GI50 (SR) | GI50 (T47D) | GI50 (UACC-257)
Cc1ccc(Nc2n[nH]c(NS(=O)(=O)c3cc(C)c(Cl)cc3S)n2)cc1 | > 100 µM (inactive) | > 100 µM (inactive) | > 100 µM (inactive) | > 100 µM (inactive) | > 100 µM (inactive) | > 100 µM (inactive) | > 100 µM (inactive) | > 100 µM (inactive) | > 100 µM (inactive) | > 100 µM (inactive) | > 100 µM (inactive) | > 100 µM (inactive) | > 100 µM (inactive) | > 100 µM (inactive) | > 100 µM (inactive) | > 100 µM (inactive) | > 100 µM (inactive) | > 100 µM (inactive) | > 100 µM (inactive) | > 100 µM (inactive)
CC(C)N1CCN(c2ccncc2S(=O)(=O)N2CCCCC2)CC1 | > 100 µM (inactive) | > 100 µM (inactive) | > 100 µM (inactive) | > 100 µM (inactive) | > 100 µM (inactive) | > 100 µM (inactive) | > 100 µM (inactive) | > 100 µM (inactive) | > 100 µM (inactive) | > 100 µM (inactive) | > 100 µM (inactive) | > 100 µM (inactive) | > 100 µM (inactive) | > 100 µM (inactive) | > 100 µM (inactive) | > 100 µM (inactive) | > 100 µM (inactive) | > 100 µM (inactive) | > 100 µM (inactive) | > 100 µM (inactive)
O=S1(=O)CCN(c2ccccc2CC(c2c[nH]c3ccccc23)c2c[nH]c3ccccc23)CC1 | 10 µM (inactive) | 8.41 µM (inactive) | 11.9 µM (inactive) | 3.03 µM (inactive) | 7.71 µM (inactive) | 3.9 µM (inactive) | 3.92 µM (inactive) | 11.5 µM (inactive) | 12.7 µM (inactive) | 6.67 µM (inactive) | 2.67 µM (inactive) | 4.49 µM (inactive) | 6.62 µM (inactive) | 7.91 µM (inactive) | 14.1 µM (inactive) | 8.02 µM (inactive) | 11.9 µM (inactive) | 3.08 µM (inactive) | 6.35 µM (inactive) | 5.15 µM (inactive)
Cc1cccc(/C=N/NC(=S)N(C)CCc2ccccn2)n1 | 0.285 µM (active) | 0.417 µM (active) | 0.857 µM (active) | 0.183 µM (active) | > 33 µM (inactive) | 0.687 µM (active) | 0.473 µM (active) | 0.361 µM (active) | 0.39 µM (active) | 0.467 µM (active) | 0.267 µM (active) | 0.214 µM (active) | 0.269 µM (active) | 22.9 µM (inactive) | 4.93 µM (inactive) | 0.383 µM (active) | 0.407 µM (active) | 0.246 µM (active) | 0.123 µM (active) | 0.448 µM (active)
COc1ccc2nc(-c3ccc(O)cc3)cn2c1 | 71.4 µM (inactive) | 64 µM (inactive) | > 100 µM (inactive) | 43.5 µM (inactive) | 73.1 µM (inactive) | 50.2 µM (inactive) | 23.4 µM (inactive) | > 100 µM (inactive) | > 100 µM (inactive) | 71.9 µM (inactive) | 27.4 µM (inactive) | 32 µM (inactive) | 65.8 µM (inactive) | 73.8 µM (inactive) | > 100 µM (inactive) | > 100 µM (inactive) | 54.1 µM (inactive) | 10 µM (inactive) | 89.9 µM (inactive) | 
O=c1[nH]cc(/C=N\Nc2ccccc2)c(=O)[nH]1 | > 100 µM (inactive) | > 100 µM (inactive) | > 100 µM (inactive) | 66.2 µM (inactive) | > 100 µM (inactive) | > 100 µM (inactive) | > 100 µM (inactive) | > 100 µM (inactive) | > 100 µM (inactive) | > 100 µM (inactive) | 47.8 µM (inactive) | > 100 µM (inactive) | > 100 µM (inactive) | > 100 µM (inactive) | > 100 µM (inactive) | 25.7 µM (inactive) | > 100 µM (inactive) | > 100 µM (inactive) | 9.23 µM (inactive) | > 100 µM (inactive)
COc1ccc2[nH]c3c(C)c4ccnc(NCCCN(C)CCCNc5ccc6ncn7c8ccccc8c(=O)c5c67)c4c(C)c3c2c1 | 1.11 µM (active) | 0.106 µM (active) | 1.06 µM (active) | 0.272 µM (active) | 3.15 µM (inactive) | 0.478 µM (active) | 0.411 µM (active) | 1.07 µM (active) | 0.082 µM (active) | 0.412 µM (active) | 0.0782 µM (active) | 0.0524 µM (active) | 0.664 µM (active) | 0.106 µM (active) | 1.3 µM (inactive) | 0.34 µM (active) | 0.132 µM (active) | 0.0197 µM (active) | 0.979 µM (active) | 0.723 µM (active)
CCOC(=O)/C=C(/C(=O)OCC)n1ccc(=O)n(CC(=O)OCC)c1=O | 14.8 µM (inactive) | 6.17 µM (inactive) | 2.08 µM (inactive) | 0.284 µM (active) | 4.9 µM (inactive) | 2.57 µM (inactive) | 2.44 µM (inactive) | 0.668 µM (active) | 2.22 µM (inactive) | 1.78 µM (inactive) | 3.89 µM (inactive) | 0.196 µM (active) | 2.63 µM (inactive) | 1.84 µM (inactive) | 1.67 µM (inactive) | 14 µM (inactive) | 2.96 µM (inactive) | 1.35 µM (inactive) | 0.57 µM (active) | 2.44 µM (inactive)
c1cc2n(n1)CCN2 | 1150 µM (inactive) | 1050 µM (inactive) | 4840 µM (inactive) | 3680 µM (inactive) | > 1470 µM (inactive) | 1810 µM (inactive) | 4680 µM (inactive) | 3000 µM (inactive) | 1960 µM (inactive) | 1060 µM (inactive) | 820 µM (inactive) | 2300 µM (inactive) | 561 µM (inactive) | 5550 µM (inactive) | 4300 µM (inactive) | 348 µM (inactive) | 646 µM (inactive) | 733 µM (inactive) | 347 µM (inactive) | 5980 µM (inactive)
CC1=C(O)C(=O)C=C2C1=CC=C1[C@@]2(C)CC[C@@]2(C)C3C[C@@H](C)C(=O)[C@@H](O)[C@]3(C)CC[C@]12C (some centres undefined) | 6.32 µM (inactive) | 13.9 µM (inactive) | 1.75 µM (inactive) | 1.71 µM (inactive) | 4.18 µM (inactive) | 5.86 µM (inactive) | 1.69 µM (inactive) | 1.97 µM (inactive) | 4.44 µM (inactive) | 1.97 µM (inactive) | 5.58 µM (inactive) | 1.05 µM (active) | 2.97 µM (inactive) | 3.32 µM (inactive) | 4.23 µM (inactive) | 4.55 µM (inactive) | 2.14 µM (inactive) | 0.3 µM (active) | 1.64 µM (inactive) | 2.83 µM (inactive)
